# Measured values: US10912752B2, “Methods and compositions for reducing ocular discomfort” (Brien Holden Vision Institute Limited, priority 2012, dated 2021)
# “Also recorded” adds a separate entry of the source.
# Legend:
# HCLE cells [1] = assay: Flow cytometry Annexin V/PI apoptosis/necrosis under hyperosmotic stress; type: cell-based, human; conditions: 16 h; for percentage of healthy cells (Annexin V and PI negative): 500 mOsm + 10 mM vs 500 mOsm; for total percentage of apoptotic and necrotic (damaged) cells: 500 mOsm + 10 mM, flow cytometry
# Method: (§1) Cell volume and Live/Dead staining via flow cytometry were performed using the Attune® Acoustic focusing Cytometer (Life Technologies™ Applied Biosystems). Annexin V and PI kit (Invitrogen™) was used to analyse the non-apoptotic, and the early and late apoptotic cells. Staining was performed as per manufacturer's instructions. Analysis of Annexin staining was conducted using the blue/violet laser with excitation/emission spectra of 480/500 nm (20 mW) and the PI staining analysis was conducted using blue/red laser with an excitation/emission spectra of 490/635 nm.
# 500 mOsm and exposure time (16 h) to be the most informative under which to observe hyperosmolality induced cellular responses of HCLE (results not shown). Thus, in the present study, a hyperosmotic medium of 500 mOsm and exposure time of 16 h were used throughout. Hyperosmolar media were prepared by the addition of NaCl to the medium. Medium osmolarity was measured using a Vapro 5520 vapour pressure osmometer (Wescor, Logan, Utah). Subconfluent cells were exposed to hyperosmolar media in the presence or absence of betaine (5 or 10 mM). Mitochondrial and proliferation activities for cell viability; TNF-α production; caspase activity and Annexin V/PI staining for apoptosis; and cellular shrinkage were monitored as detailed below.
# It was observed that an osmolarity of 450 mOsM and 500 mOsM and exposure time of 16 hours was the most optimal for studying hyperosmolarity induced cellular responses of HCLE (results not shown). Therefore, a hyperosmolar medium of 450 mOsM and 500 mOsM and an exposure time of 16 hours were used throughout the study. The hyperosmolarity of the medium was achieved by addition of an appropriate amount of NaCl to it, and further measuring using Vapro 5520 vapor pressure osmometer (Wescor, Logan, Utah). Cells, having reached 70%-80% confluence were exposed to hyperosmolar media in the presence or absence of 10 mM L-Carnitine. Cellular shrinkage in relation to hyperosmotic stress, Annexin V/PI staining for apoptosis, Caspase activities and TNF-α production were analysed.
# (§2) Cultured human corneal limbal epithelial (HCLE) cells were exposed to culture medium with or without carnitine (10 mM) at 300 mOsm (isotonic), 450 mOsm (moderate), and 500 mOsm (hyperosmotic) for 16 h. Induction of apoptosis was detected by quantification of the proteolytic activity of caspase-8, caspase-9, or caspase-3/7 using caspase activity assays, and production of tumor necrosis factor (TNF)-α, a known apoptosis inducer, using ELISA. Annexin V and Propidium iodine (PI) staining was performed to detect the percentage of apoptotic cells using confocal microscopy and flow cytometry.
# HCLE cells [2] = assay: Flow cytometry cell volume (shrunken cells) under hyperosmotic stress; type: cell-based, human; conditions: 16 h; for population of shrunken cells: 500 mOsm + 10 mM, flow cytometry
# Text: Forward scatter of the laser light produced by the flow cytometer is proportional to the volume of the cell. This principle was used to analyse the osmoprotective effect of betaine in restoring the cell volume which is adversely affected due to hypertonicity. Cell populations were gated such that the population of cells showing a greater forward scatter (FSC) constituted the percentage of cells with a volume equal to that of a cell under isotonic conditions. On the other hand, the proportion of side scatter in a flow cytometer represents the cell structure complexity and granularity. […] Cells were exposed to isotonic media (300 mOsM), hyperosmotic media (500 mOsM) and hyperosmotic media containing betaine (500 mOsM media+10 mM betaine) for 16 h after which they were analysed using flow cytometer.
# as §1
# Cultured HCLE cells were exposed to culture medium with or without carnitine (10 mM) at 300 mOsm (isotonic) and 500 mOsm (hyperosmotic) for 16 h. Flow cytometry was performed to determine the cell volume changes based on the forward and side scatter values detected.
# caspase-8 = assay: Caspase-Glo luminescent caspase activity in HCLE under hyperosmotic stress; type: cell-based, human; conditions: 16 h; for reduction of caspase-8 activity: 500 mOsm
# Method: Caspase-3/7, -8 and -9 activities were assayed using a luminescent assay kit (Promega, Madison, Wis.) according to the manufacturer's instructions. Briefly, 100 μL of Caspase-Glo-3/7, -8 and -9 reagents were added to HCLE at maintained on plastic at 2×10^4/cm^2, mixed and incubated for one hour at room temperature. Luminescence was measured using a SpectraFluor Plus microplate reader.
# as §2
# IL-17 = assay: qRT-PCR of mouse conjunctiva, ICES dry eye model; type: in vivo, C57BL/6 mice; conditions: normalized to GAPDH; for mRNA expression of IL-17 vs PBS treatment group: Schedule 1, Day 21, conjunctiva
# Text: (§3) For Schedule 1, six (6×) mice per each group at the end of Day 21 and five (5×) mice from each group at the end of Day 35 post-housing in ICES and undergoing the treatment were sacrificed with an overdose of a mixture of ketamine and xylazine for qRT-PCR evaluation of […] inflammatory responses. On the other hand, for Schedule 2, three (3×) mice were sacrificed at the end of Day 21, and all the other mice were sacrificed at the end of Day 35 post-housing in ICES and undergoing the treatment. Additionally, seven healthy animals which were not housed in ICES and received no treatment were euthanized as healthy controls for comparison.
# (§4) For qRT-PCR detection of IL-1β, IL-6, IL-17, TNF-α, and GAPDH, total RNA from conjunctivas (2 eyes/group/schedule) were extracted and pooled from each of the five experimental groups using the RNA isolation kit according to the manufacturer's instructions (PicoPure RNA isolation kit, 40 isolations, Arcturus). cDNA was synthesized from 1-μg of total RNA using random primer and M-MuLV reverse transcriptase. The primer sequences for qRT-PCR detection of these mediators have been designed in preparation for qRT-PCR work (Table 1).
# (§5) Expression of IL-1β, IL-6, IL-17, or TNF-α detected at mRNA level from Real-time PCR were normalized to that of the housekeeping gene GAPDH. Total RNA were collected from the pooled conjunctiva from 2 eyes of each group (total 6× eyes per each treatment group were used for qRT-PCR).
# IL-1β = assay: qRT-PCR of mouse conjunctiva, ICES dry eye model; type: in vivo, C57BL/6 mice; conditions: normalized to GAPDH; for mRNA expression of IL-1β vs PBS treatment group: Schedule 1, Day 21, conjunctiva
# Text: as §3, §4, §5
# IL-6 = assay: qRT-PCR of mouse conjunctiva, ICES dry eye model; type: in vivo, C57BL/6 mice; conditions: normalized to GAPDH; for mRNA expression of IL-6 vs PBS treatment group: Schedule 1, Day 21, conjunctiva
# Text: as §3, §4, §5
# TNF-α = assay: qRT-PCR of mouse conjunctiva, ICES dry eye model; type: in vivo, C57BL/6 mice; conditions: normalized to GAPDH; for mRNA expression of TNF-α vs PBS treatment group: Schedule 1, Day 21, conjunctiva
# Text: as §3, §4, §5
# [3] = system: human corneal epithelial cell; assay: Evaporative drying culture model, Annexin V/PI apoptotic/necrotic cells; type: cell-based; conditions: 0.25% in culture medium, 4 hrs evaporative drying, 34° C.
# Method: A in vitro human corneal epithelial cell culture model was used where cells were cultured under a slow drying condition with the culture medium slowly evaporated over the time period of 4-4.5 hours at 34° C. (the temperature of human eyes) to mimic tear film evaporation.
# [4] = Schedule 2, Day 35, conjunctiva
structure (smiles),measurement,setting,value
"C[N+](C)(C)CC(O)CC(=O)[O-] (stereo not shown) [carnitine, 3-hydroxy-4-(trimethylazaniumyl)butanoate]",increase in the percentage of un-damaged (non-apoptotic/non-necrotic) cells,"HCLE cells [1]; 10 mM, 500 mOsm, vs hyperosmotically stressed HCLE",63%
same,percentage of healthy cells (Annexin V and PI negative),HCLE cells [1],increased
same,total percentage of apoptotic and necrotic (damaged) cells,HCLE cells [1],~19.0%
same,population of shrunken cells,HCLE cells [2],~15%
same,population of shrunken cells,HCLE cells [2]; listed as L-Carnitine,18.01%
same,change in Caspase-8 activity (in words),"caspase-8; 10 mM, hypertonic medium",minimum or no visible decline
same,mRNA expression of IL-17 vs PBS treatment group,IL-17; listed as B,statistically significant reduction; also recorded: lowest expression level
same,mRNA expression of IL-17 vs PBS control (C),IL-17; [4],statistically significant reduction
same,mRNA expression of IL-1β vs PBS treatment group,IL-1β; listed as B,statistically significant reduction; also recorded: lowest expression level
same,mRNA expression of IL-1β vs PBS control (C),IL-1β; [4],statistically significant reduction
same,mRNA expression of IL-6 vs PBS treatment group,IL-6; listed as B,statistically significant reduction; also recorded: lowest expression level
same,mRNA expression of IL-6 vs PBS control (C),IL-6; [4],statistically significant reduction
same,mRNA expression of TNF-α vs PBS treatment group,TNF-α; listed as B,statistically significant reduction; also recorded: lowest expression level
same,cellular damage (apoptotic and necrotic cells) caused by evaporation-increased osmolarity,[3],minimised the cellular damage
"C[N+](C)(C)CC(=O)[O-] [betaine, trimethylglycine]",percentage of healthy cells (Annexin V and PI negative),HCLE cells [1],considerable increase
same,total percentage of apoptotic and necrotic (damaged) cells,HCLE cells [1],15.70%
same,percentage of healthy (normal volume) cells,HCLE cells [2]; 500 mOsm + 10 mM vs 500 mOsm,significantly increased
same,population of shrunken cells,HCLE cells [2],11.01%
same,reduction of caspase-8 activity,caspase-8; 5 mM,2- to 3 fold
same,reduction of caspase-8 activity,caspase-8; 10 mM,4- to 5.2 fold
same,mRNA expression of IL-17 vs PBS treatment group,IL-17,statistically significant reduction
same,mRNA expression of IL-1β vs PBS treatment group,IL-1β,statistically significant reduction
same,mRNA expression of IL-6 vs PBS treatment group,IL-6,statistically significant reduction
same,mRNA expression of TNF-α vs PBS treatment group,TNF-α,statistically significant reduction
same,mRNA expression of TNF-α vs PBS control (C),TNF-α; [4],statistically significant reduction
